Values quoted from earlier work, collected in patent US20210195875A1 (SMC GLOBAL ASSET, INC., priority 2016, published 2021).
Entries after “also recorded” stand apart in the source; their conditions may differ.

Columns and labels:
mice = details: icv STZ alone

Row | SMILES | toxicity in rat primary cultured cells (dopaminergic neuron) | aggregation of a pathologic protein such as amyloid and tau (mice) | inflammation and neural function disorder (mice; compared with a gene modified model)
1 | Cn1c(N)nc2ncc(-c3ccccc3)cc21 [PhIP, 2-amino-1-methyl-6-phenyl-1H-imidazo[4,5-b] pyridine] | toxicity in a dopaminergic neuron selective manner; also recorded: toxicity in a dopamine nerve selective manner | – | –
2 | CN(N=O)C(=O)N[C@H]1C(O)O[C@H](CO)[C@@H](O)[C@@H]1O (mixture of isomers) [icv STZ, streptozotocin] | – | no aggregation of a pathologic protein | intense inflammation and neural function disorder
